pKd: −log10 of the molar value.
Experiments:
[1] = target: T1, Cyclin-dependent kinase 11A (Homo sapiens, UniProt Q9UQ88)
T1 sequence (Q9UQ88 whole entry): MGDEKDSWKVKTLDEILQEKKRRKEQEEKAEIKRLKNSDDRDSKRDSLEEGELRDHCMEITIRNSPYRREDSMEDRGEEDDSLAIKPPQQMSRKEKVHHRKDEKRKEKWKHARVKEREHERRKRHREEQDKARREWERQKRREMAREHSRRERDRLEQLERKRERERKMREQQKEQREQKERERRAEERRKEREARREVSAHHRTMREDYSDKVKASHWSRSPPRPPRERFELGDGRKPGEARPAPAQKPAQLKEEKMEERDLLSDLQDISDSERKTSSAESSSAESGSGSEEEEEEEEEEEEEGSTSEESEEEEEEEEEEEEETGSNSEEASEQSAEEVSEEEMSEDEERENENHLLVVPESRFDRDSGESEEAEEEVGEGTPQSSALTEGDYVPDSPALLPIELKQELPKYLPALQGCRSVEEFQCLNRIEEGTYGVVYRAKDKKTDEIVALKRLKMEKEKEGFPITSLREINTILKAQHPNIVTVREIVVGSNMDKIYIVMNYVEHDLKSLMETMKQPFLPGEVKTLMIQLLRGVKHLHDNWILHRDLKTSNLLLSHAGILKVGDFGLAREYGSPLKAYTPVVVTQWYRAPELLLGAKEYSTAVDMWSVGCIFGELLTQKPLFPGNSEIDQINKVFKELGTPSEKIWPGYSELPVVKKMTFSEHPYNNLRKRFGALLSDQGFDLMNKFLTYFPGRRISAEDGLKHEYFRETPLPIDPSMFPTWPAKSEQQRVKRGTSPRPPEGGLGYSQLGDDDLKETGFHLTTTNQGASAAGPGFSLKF

[2] = target: Serine/threonine-protein kinase N1 (Homo sapiens, UniProt Q16512)
[3] = target: Mitogen-activated protein kinase kinase kinase 4 (Homo sapiens, UniProt Q9Y6R4)
[4] = target: Calcium/calmodulin-dependent protein kinase kinase 1 (Homo sapiens, UniProt Q8N5S9)
[5] = target: T2, Serine/threonine-protein kinase 36 (Homo sapiens, UniProt Q9NRP7)
T2 sequence (Q9NRP7 whole entry): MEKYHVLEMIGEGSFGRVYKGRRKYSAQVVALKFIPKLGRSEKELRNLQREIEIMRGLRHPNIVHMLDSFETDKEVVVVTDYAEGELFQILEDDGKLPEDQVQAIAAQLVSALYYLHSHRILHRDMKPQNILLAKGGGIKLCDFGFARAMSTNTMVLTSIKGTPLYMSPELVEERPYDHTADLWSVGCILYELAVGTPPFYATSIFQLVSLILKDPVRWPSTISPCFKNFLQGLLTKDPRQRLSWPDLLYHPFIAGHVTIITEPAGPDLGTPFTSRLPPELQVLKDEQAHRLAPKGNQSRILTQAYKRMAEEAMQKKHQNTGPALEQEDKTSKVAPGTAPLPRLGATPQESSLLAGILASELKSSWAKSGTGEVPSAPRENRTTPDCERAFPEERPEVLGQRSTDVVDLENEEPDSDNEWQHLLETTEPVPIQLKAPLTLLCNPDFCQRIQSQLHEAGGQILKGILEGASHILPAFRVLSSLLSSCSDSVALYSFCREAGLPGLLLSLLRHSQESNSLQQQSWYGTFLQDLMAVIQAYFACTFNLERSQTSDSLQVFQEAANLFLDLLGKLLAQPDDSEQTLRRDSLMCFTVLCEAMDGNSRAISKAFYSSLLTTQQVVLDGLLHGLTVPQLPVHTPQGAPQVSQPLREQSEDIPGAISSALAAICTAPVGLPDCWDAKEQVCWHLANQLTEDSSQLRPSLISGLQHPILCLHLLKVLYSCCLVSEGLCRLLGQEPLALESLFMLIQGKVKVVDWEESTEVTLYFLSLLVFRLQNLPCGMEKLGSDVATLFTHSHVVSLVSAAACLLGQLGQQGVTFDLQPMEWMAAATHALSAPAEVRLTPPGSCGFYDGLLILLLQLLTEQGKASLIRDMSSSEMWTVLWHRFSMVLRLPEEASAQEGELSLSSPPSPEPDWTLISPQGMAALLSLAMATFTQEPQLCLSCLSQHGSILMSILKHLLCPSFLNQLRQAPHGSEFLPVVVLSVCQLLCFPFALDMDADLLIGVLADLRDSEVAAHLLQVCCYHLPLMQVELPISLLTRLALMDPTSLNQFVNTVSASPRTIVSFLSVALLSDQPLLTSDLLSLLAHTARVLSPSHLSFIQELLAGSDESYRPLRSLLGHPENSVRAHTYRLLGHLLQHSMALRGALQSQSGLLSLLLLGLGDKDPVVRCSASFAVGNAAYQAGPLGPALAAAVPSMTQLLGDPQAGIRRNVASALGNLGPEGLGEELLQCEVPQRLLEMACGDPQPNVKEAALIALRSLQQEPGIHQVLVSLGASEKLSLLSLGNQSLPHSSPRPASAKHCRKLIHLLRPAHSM

[6] = target: T3, Atypical kinase COQ8B, mitochondrial (Homo sapiens, UniProt Q96D53)
T3 sequence (Q96D53 whole entry): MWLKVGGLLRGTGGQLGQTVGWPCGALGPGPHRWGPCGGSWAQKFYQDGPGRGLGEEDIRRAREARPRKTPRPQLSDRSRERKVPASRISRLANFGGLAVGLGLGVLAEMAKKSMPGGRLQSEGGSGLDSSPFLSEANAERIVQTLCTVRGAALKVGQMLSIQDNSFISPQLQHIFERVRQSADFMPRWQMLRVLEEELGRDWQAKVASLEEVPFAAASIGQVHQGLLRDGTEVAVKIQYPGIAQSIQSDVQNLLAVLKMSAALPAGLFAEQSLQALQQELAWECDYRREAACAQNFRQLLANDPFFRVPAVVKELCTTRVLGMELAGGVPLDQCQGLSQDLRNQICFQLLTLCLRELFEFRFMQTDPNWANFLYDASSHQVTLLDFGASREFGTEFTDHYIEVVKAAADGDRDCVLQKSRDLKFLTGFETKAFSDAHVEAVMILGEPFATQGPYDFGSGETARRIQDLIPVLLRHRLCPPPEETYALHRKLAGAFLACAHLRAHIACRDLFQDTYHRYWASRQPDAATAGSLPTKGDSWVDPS

Serine/threonine-protein kinase N1, sequence (Q16512 whole entry): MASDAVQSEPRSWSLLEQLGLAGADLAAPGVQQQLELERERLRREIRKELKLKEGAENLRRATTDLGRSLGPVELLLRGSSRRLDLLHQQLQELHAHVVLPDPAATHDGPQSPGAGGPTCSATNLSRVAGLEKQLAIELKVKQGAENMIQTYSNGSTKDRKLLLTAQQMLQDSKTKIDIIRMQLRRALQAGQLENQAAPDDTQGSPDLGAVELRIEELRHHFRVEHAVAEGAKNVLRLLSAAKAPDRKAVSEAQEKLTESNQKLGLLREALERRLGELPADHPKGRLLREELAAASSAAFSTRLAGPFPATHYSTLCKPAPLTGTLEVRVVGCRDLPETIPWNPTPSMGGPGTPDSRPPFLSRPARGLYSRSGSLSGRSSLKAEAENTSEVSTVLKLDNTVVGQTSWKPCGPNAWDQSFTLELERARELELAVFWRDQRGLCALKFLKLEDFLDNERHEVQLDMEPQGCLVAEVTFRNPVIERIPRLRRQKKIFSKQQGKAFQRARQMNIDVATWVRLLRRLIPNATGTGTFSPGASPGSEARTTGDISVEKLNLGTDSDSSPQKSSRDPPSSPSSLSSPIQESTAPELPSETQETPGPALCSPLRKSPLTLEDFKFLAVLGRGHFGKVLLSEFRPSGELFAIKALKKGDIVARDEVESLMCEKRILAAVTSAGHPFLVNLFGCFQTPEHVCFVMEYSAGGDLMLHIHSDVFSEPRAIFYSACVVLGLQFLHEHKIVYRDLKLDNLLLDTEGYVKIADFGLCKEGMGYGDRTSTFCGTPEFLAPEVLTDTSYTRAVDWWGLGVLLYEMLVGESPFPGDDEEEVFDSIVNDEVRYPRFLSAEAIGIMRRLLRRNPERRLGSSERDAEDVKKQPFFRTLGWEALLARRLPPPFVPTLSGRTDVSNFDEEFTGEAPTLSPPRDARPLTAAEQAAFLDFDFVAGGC
Mitogen-activated protein kinase kinase kinase 4, sequence (Q9Y6R4 whole entry): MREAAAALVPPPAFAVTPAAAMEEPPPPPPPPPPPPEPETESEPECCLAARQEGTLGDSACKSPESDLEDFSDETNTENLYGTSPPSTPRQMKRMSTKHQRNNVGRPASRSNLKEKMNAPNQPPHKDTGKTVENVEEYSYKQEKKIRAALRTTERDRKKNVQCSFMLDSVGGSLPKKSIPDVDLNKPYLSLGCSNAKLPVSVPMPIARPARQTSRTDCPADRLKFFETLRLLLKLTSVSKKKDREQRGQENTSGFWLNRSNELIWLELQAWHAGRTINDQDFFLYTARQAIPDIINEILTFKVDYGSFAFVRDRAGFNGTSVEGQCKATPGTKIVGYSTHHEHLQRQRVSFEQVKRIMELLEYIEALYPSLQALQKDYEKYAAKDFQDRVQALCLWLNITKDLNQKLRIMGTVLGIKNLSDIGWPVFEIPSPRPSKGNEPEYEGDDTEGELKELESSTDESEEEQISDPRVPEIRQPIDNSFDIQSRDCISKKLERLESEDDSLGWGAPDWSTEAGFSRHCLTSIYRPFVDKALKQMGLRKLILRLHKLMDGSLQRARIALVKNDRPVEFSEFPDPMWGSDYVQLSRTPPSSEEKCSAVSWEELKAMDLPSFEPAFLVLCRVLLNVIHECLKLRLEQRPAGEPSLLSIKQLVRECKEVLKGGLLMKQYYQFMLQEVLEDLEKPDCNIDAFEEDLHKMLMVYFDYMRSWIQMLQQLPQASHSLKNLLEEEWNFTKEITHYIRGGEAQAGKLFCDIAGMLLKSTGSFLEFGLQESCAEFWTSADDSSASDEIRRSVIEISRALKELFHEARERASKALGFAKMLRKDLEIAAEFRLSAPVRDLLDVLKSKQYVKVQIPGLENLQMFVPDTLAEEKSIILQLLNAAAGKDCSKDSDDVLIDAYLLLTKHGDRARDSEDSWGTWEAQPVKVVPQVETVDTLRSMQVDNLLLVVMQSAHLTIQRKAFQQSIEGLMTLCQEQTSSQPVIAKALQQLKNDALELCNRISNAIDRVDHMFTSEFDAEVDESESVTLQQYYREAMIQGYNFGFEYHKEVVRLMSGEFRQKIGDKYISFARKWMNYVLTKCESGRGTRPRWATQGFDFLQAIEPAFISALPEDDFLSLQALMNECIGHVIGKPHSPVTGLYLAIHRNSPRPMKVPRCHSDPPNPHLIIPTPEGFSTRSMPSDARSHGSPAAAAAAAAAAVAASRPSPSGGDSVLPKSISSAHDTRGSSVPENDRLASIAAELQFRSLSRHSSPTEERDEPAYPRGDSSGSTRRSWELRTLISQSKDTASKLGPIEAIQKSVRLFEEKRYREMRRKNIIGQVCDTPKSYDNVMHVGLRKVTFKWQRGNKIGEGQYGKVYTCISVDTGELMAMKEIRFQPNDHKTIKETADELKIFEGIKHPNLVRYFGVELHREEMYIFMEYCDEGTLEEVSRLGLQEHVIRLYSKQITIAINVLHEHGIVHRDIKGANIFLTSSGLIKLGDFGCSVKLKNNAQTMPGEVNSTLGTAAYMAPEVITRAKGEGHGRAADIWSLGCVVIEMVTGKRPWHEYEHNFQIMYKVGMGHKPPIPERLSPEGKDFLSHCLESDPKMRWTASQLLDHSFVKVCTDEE
Calcium/calmodulin-dependent protein kinase kinase 1, sequence (Q8N5S9 whole entry): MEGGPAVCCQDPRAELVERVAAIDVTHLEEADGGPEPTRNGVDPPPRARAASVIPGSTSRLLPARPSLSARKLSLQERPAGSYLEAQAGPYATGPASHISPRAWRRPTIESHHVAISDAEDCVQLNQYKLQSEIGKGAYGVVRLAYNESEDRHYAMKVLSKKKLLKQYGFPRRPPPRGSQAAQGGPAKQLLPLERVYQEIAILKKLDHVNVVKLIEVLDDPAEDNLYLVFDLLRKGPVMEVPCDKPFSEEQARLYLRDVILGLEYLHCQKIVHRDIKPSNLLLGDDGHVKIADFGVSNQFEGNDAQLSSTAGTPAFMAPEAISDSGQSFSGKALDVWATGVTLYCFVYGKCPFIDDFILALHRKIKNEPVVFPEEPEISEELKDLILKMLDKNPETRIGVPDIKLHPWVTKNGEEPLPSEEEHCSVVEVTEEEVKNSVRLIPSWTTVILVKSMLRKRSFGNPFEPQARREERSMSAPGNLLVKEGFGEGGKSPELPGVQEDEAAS

In the case of COCC(=O)NC/C=C/c1ccc2ncnc(Nc3ccc(Oc4ccc(C)nc4)c(C)c3)c2c1 [CP-724714], the pKd [1] was less than 5.00, the pKd [2] was less than 5.00 and the pKd [3] was less than 5.00. The pKd [4] was less than 5.00, the pKd [5] was less than 5.00 and the pKd [6] was less than 5.00.
Nc1nc(Nc2ccc(S(N)(=O)=O)cc2)nn1C(=O)c1c(F)cccc1F [JNJ-7706621] gave a pKd [2] of less than 5.00, a pKd [3] of less than 5.00 and a pKd [5] of less than 5.00. For the same compound, the pKd [6] was less than 5.00.
CCOc1cc2ncc(C#N)c(Nc3ccc(F)c(Cl)c3)c2cc1NC(=O)/C=C/CN(C)C [PELITINIB] gave a pKd [1] of less than 5.00, a pKd [2] of less than 5.00 and a pKd [4] of 5.29. It also gave a pKd [6] of 5.21.
For Oc1ccc(-c2nc(-c3ccncc3)c(-c3ccc(F)cc3)[nH]2)cc1 [SB-202190], the pKd [1] was less than 5.00, the pKd [2] was less than 5.00 and the pKd [3] was less than 5.00. The pKd [4] was less than 5.00, the pKd [5] was 6.10 and the pKd [6] was 5.31.
NC(=O)c1ccc(-c2nc(-c3ccc4c(c3)OCO4)c(-c3ccccn3)[nH]2)cc1 [SB-431542] gave a pKd [1] of less than 5.00, a pKd [2] of less than 5.00 and a pKd [3] of less than 5.00. For the same compound, the pKd [4] was less than 5.00, the pKd [5] was less than 5.00 and the pKd [6] was less than 5.00.

Reference: ChEMBL document CHEMBL1150977, “A quantitative analysis of kinase inhibitor selectivity” (Nat Biotechnol, 2008)
